From ChEMBL document CHEMBL1201862, “PubChem BioAssay data set” (2004)
Calls of active or inactive are those of the source.

Assays:
[1] = cells; assay type: functional, cell-based
[2] = cells; assay type: functional, cell-based; remark: listed apart in the source
[3] = cells; assay type: functional, cell-based; remark: listed apart in the source
[4] = molecular target: T1, Nuclear receptor subfamily 0 group B member 1 (Homo sapiens, UniProt P51843); assay type: functional, cell-based;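 note: HEK293T cells transfected with SF-1 and DAX-1 plus StAR promoter luciferase reporter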
T1 sequence (P51843 whole entry): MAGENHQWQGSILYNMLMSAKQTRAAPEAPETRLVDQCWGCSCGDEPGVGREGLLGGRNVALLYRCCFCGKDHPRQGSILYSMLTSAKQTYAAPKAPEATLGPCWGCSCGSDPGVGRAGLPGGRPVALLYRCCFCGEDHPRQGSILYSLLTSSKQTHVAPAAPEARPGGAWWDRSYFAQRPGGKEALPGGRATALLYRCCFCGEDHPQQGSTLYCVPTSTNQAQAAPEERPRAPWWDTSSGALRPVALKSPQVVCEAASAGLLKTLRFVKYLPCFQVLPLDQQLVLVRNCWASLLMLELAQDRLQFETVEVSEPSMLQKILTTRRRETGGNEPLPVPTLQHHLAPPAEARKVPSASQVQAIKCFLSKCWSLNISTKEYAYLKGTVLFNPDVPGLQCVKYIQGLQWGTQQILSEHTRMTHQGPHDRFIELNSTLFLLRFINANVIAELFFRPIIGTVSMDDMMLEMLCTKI

[5] = molecular target: 26S proteasome non-ATPase regulatory subunit 14 (Homo sapiens, UniProt O00487); experiment: inhibition of proteasome subunit RPN11 – biochemical, fluorescence polarization, uHTS hits, confirmation (AID 602368); assay type: functional
[6] = molecular target: 72 kDa type IV collagenase (Homo sapiens, UniProt P08253); experiment: Dose Response validation of uHTS RPN11 inhibitor hits using a MMP-2 Fluorescence assay.; assay type: functional
[7] = molecular target: Prothrombin (Bos taurus, UniProt P00735); experiment: thrombin inhibition, dose response, biochemical, fluorescence polarization, uHTS hits (AID 602369); assay type: functional
[8] = Luminescence Cell-Based Dose Confirmation HTS to Identify Activators of 5'UTR Stem-Loop Driven Alpha-Synuclein mRNA Translation in H4 Neuroglioblastoma Cells. [Related pubchem assays: 1829 (Project Summary), 1814 (Primary HTS)]; assay type: functional
[9] = Luminescence Cell-Based Dose Response HTS to Identify Activators of Luciferase Translation or Activity in H4 […] Cells. [Related pubchem assays: 1829 (Project Summary), 1814 (Primary HTS)]; assay type: functional
[10] = tested on: H4; experiment: Luminescence Cell-Based Dose Response HTS to Identify Activators of 5'UTR Stem-Loop Driven Prion Protein mRNA Translation in H4 Neuroglioblastoma Cells. [Related pubchem assays: 1829 (Project Summary), 1814 (Primary HTS)]; assay type: functional; details: Homo sapiens
[11] = molecular target: Cytochrome P450 2C19 (Homo sapiens, UniProt P33261); experiment: Cytochrome panel assay with activity outcomes. Panel member name: p450-cyp2c19 Compounds with AC50 equal or less than 10 uM are considered active; assay type: functional; details: read-out: AC50
[12] = molecular target: Cytochrome P450 3A4 (Homo sapiens, UniProt P08684);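 note: CYP3A4 tested as one member of a cytochrome P450 panel screen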
[13] = molecular target: Cytochrome P450 2C9 (Homo sapiens, UniProt P11712)
[14] = molecular target: Melanocortin receptor 4 (Homo sapiens, UniProt P32245); assay type: functional, cell-based;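 note: Cell-based assay with luminescence read-out, confirmatory dose-response testing for agonist activity of biased ligands at MC4R; human U2OS cells with tagged receptor and beta-arrestin; potency of agonists that increase receptor coupling to beta-arrestin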
[15] = molecular target: T2, Probable nicotinate-nucleotide adenylyltransferase (Staphylococcus aureus (strain N315), UniProt P65502); assay type: functional, Staphylococcus aureus subsp. aureus N315;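 for IC50 Mean: confirmatory dose-response retesting of NadD inhibitor hits first found in an ultra-high-throughput screen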
[16] = molecular target: T2, Probable nicotinate-nucleotide adenylyltransferase; assay type: functional, Staphylococcus aureus subsp. aureus N315; details: read-out: IC50_Mean
[17] = tested on: HeLa; experiment: HeLa cell cytotoxicity, dose response, cytotoxicity control for MITF activator project, CellTiter-Glo luminescence, cherry-pick samples (AID 540259); assay type: functional, cell-based; details: Homo sapiens
[18] = molecular target: T3, Sentrin-specific protease 8 (Homo sapiens, UniProt Q96LD8); experiment: SENP8 protease inhibitors, SAR follow-up, biochemical, luminescence (AID 504501); assay type: functional
T3 sequence (Q96LD8 whole entry): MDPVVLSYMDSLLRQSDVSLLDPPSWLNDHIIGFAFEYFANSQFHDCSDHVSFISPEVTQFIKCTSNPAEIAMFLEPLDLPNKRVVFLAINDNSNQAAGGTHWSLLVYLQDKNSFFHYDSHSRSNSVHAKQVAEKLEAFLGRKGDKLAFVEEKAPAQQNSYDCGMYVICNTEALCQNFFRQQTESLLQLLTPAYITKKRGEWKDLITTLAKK

[19] = molecular target: T4, Caspase-3 (Homo sapiens, UniProt P42574); experiment: SAR Analysis of small molecule inhibitors of Sentrin-specific proteases (SENPs) using a Caspase-3 Selectivity assay. [Related pubchem assays (depositor defined):AID2540, AID2599, AID434973, AID489001]; assay type: functional
T4 sequence (P42574 whole entry): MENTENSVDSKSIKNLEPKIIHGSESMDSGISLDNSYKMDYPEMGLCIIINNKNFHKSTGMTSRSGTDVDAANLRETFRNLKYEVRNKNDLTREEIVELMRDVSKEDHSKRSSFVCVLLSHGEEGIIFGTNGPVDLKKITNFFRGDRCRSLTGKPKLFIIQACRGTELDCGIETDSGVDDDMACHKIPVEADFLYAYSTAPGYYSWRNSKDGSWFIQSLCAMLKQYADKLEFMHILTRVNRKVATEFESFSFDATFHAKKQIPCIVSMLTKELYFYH

[20] = molecular target: T5, Sentrin-specific protease 6 (Homo sapiens, UniProt Q9GZR1); experiment: SAR Analysis of small molecule inhibitors of Sentrin-specific protease 6 (SENP6) using a Luminescent assay. [Related pubchem assays (depositor defined):AID2582, AID2599]; assay type: functional
T5 sequence (Q9GZR1 whole entry): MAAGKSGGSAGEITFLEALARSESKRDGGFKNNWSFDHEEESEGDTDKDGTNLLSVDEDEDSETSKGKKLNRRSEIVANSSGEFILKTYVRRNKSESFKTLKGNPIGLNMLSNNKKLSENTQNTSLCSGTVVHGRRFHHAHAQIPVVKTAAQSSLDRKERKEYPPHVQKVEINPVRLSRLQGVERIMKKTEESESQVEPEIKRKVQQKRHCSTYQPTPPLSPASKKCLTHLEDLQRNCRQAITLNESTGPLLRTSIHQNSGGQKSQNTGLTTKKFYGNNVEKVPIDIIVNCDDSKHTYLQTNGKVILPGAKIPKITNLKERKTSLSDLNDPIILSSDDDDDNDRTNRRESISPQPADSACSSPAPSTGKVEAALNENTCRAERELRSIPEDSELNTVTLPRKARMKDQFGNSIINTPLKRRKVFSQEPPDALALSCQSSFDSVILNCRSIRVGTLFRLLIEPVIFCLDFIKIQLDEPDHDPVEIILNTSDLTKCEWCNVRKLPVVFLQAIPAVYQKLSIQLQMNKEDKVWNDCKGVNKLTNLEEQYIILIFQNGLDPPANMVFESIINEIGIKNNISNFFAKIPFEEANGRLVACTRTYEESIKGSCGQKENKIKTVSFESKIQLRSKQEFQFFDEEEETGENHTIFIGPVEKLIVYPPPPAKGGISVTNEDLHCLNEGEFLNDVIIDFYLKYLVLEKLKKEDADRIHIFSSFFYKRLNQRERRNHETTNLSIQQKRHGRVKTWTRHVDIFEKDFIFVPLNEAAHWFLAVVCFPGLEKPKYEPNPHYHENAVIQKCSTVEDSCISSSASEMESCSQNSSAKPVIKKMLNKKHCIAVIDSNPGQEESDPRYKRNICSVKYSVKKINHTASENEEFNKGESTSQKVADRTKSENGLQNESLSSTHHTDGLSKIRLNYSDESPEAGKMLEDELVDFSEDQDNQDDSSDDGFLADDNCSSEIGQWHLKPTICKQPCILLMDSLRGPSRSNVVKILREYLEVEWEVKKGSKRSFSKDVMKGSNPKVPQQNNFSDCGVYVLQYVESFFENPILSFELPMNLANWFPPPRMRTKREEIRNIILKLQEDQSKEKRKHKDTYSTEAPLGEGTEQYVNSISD

[21] = molecular target: T6, Sentrin-specific protease 7 (Homo sapiens, UniProt Q9BQF6); experiment: SENP7 protease inhibitors, SAR follow-up, biochemical, luminescence (AID 504497); assay type: functional
T6 sequence (Q9BQF6 whole entry): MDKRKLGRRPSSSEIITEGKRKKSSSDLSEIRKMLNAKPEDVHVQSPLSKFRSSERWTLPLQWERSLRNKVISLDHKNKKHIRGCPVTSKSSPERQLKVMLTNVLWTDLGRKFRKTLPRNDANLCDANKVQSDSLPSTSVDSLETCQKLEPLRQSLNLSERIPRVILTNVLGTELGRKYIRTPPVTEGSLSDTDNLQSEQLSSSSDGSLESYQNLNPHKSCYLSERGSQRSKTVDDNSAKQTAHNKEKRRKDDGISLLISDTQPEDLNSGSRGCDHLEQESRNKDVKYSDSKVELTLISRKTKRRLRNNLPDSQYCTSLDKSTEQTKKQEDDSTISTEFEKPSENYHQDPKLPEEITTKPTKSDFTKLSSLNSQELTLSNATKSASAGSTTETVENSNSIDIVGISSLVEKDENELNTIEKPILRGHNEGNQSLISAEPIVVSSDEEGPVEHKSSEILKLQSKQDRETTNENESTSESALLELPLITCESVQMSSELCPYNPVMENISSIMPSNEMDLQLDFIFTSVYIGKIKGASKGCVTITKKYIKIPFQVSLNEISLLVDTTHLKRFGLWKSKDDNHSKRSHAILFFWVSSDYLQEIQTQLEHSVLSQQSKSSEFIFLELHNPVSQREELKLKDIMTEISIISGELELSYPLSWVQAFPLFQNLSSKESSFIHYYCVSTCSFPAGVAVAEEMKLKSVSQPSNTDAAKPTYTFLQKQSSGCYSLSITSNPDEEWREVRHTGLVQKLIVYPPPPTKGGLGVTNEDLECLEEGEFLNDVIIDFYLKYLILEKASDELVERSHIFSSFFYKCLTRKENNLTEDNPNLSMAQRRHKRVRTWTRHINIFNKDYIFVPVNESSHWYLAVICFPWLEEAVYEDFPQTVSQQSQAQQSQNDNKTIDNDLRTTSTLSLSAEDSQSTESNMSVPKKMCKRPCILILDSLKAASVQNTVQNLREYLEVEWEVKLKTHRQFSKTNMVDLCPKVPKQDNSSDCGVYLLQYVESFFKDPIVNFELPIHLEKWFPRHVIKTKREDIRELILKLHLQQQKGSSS

[22] = tested on: H9c2; experiment: cells; assay type: functional, cell-based; details: Rattus norvegicus, H9c2, Myocardium;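 note: confirmatory concentration-response retest of ultra-high-throughput screening hits for modulation of myocardial damage; cell death induced by hydrogen peroxide oxidative stress; compound pretreatment for 60 min then peroxide exposure for 2 h; potency is for protecting the cells against peroxide damage rather than for killing them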
[23] = tested on: HeLa; experiment: HeLa cell cytotoxicity, dose response, cytotoxicity control, ATP luminescence, cherry-pick samples (AID 687004); assay type: functional, cell-based; details: Homo sapiens
[24] = molecular target: Induced myeloid leukemia cell differentiation protein Mcl-1 (Homo sapiens, UniProt Q07820); assay type: functional
[25] = molecular target: T7, Carboxy-terminal domain RNA polymerase II polypeptide A small phosphatase 1 (Homo sapiens, UniProt Q9GZU7); experiment: inhibitors of CTDSP1, concentration-response testing, biochemical assay, absorbance-based, actives from ultra-high-throughput screening (AID 540297); assay type: functional
T7 sequence (Q9GZU7 whole entry): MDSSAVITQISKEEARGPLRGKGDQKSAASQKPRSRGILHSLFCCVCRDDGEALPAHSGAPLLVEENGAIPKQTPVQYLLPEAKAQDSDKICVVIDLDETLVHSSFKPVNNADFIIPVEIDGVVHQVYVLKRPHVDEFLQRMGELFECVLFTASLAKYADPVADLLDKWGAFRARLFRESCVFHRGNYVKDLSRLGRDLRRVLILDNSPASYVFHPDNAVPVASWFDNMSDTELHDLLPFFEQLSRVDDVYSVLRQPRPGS

T2 sequence (P65502 whole entry): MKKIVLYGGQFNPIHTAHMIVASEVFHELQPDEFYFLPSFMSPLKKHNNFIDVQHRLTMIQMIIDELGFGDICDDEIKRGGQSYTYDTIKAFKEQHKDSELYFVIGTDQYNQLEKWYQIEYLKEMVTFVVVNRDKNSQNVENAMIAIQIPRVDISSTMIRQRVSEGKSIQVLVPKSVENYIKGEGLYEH
Chain of Melanocortin receptor 4 (P32245 whole entry): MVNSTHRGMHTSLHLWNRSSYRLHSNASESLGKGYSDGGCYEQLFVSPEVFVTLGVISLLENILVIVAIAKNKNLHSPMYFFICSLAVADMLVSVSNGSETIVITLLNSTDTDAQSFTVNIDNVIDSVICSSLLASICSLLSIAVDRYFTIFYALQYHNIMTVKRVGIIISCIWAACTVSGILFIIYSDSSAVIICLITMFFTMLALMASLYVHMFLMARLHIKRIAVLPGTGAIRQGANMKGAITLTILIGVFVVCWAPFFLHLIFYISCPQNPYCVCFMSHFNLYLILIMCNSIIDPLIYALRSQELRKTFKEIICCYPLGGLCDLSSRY
Chain of 26S proteasome non-ATPase regulatory subunit 14 (O00487 whole entry): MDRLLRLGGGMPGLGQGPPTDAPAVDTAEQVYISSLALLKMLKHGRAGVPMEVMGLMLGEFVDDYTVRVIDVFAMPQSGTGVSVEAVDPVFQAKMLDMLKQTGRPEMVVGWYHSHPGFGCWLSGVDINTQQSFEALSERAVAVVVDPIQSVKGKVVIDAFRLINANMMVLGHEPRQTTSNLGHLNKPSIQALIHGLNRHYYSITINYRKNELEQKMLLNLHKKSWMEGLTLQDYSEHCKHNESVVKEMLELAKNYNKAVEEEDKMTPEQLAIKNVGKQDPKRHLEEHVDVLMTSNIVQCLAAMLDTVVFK
Chain of 72 kDa type IV collagenase (P08253 whole entry): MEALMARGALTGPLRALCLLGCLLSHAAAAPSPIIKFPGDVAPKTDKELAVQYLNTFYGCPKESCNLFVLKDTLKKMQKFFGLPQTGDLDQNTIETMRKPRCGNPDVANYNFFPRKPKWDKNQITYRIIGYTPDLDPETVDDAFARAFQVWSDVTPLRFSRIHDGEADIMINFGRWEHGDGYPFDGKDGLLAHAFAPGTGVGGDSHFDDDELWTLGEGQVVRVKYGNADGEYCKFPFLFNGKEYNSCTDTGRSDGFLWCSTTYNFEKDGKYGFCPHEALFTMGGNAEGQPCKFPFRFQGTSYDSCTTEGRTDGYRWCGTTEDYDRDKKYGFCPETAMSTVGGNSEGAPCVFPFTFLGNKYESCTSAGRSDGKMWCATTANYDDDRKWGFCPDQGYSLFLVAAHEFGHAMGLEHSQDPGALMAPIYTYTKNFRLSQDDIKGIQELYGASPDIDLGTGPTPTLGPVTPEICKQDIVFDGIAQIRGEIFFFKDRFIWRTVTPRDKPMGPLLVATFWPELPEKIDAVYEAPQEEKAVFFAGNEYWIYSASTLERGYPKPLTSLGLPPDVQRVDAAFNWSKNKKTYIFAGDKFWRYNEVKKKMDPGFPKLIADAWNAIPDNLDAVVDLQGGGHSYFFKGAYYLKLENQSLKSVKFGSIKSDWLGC
Chain of Cytochrome P450 3A4 (P08684 whole entry): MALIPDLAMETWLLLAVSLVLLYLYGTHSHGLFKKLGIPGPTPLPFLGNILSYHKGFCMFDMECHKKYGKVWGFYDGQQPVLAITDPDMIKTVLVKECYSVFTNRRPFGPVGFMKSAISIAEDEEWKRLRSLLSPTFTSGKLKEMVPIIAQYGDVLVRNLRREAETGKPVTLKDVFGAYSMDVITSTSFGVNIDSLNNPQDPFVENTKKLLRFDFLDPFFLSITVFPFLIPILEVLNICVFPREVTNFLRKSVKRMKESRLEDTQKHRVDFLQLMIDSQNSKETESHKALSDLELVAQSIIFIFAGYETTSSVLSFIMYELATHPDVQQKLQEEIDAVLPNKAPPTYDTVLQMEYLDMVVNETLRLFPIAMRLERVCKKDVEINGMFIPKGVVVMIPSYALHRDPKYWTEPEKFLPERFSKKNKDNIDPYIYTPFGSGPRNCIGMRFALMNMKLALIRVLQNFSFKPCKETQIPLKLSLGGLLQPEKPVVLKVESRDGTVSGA
Chain of Cytochrome P450 2C9 (P11712 whole entry): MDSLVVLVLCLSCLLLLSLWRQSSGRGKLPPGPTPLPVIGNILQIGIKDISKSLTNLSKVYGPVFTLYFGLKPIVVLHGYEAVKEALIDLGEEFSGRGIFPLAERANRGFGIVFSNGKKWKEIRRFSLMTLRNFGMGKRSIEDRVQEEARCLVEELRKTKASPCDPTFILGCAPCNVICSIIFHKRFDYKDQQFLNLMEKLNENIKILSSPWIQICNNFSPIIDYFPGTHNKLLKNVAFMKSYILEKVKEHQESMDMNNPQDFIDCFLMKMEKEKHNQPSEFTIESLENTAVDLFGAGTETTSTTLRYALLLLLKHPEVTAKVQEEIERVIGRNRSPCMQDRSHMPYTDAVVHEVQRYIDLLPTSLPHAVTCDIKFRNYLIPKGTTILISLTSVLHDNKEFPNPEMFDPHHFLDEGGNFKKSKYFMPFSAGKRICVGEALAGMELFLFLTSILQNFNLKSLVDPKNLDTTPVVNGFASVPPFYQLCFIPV
Chain of Induced myeloid leukemia cell differentiation protein Mcl-1 (Q07820 whole entry, the tested form may be a part): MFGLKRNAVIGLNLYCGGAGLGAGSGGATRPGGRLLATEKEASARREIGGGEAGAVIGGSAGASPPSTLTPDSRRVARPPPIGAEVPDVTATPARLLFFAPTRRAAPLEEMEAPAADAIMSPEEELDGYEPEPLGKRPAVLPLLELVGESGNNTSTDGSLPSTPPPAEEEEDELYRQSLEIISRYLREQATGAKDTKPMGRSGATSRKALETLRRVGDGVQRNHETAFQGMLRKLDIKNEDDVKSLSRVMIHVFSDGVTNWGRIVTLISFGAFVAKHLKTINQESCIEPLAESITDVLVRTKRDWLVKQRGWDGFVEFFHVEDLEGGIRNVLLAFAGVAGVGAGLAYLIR
Chain of Cytochrome P450 2C19 (P33261 whole entry): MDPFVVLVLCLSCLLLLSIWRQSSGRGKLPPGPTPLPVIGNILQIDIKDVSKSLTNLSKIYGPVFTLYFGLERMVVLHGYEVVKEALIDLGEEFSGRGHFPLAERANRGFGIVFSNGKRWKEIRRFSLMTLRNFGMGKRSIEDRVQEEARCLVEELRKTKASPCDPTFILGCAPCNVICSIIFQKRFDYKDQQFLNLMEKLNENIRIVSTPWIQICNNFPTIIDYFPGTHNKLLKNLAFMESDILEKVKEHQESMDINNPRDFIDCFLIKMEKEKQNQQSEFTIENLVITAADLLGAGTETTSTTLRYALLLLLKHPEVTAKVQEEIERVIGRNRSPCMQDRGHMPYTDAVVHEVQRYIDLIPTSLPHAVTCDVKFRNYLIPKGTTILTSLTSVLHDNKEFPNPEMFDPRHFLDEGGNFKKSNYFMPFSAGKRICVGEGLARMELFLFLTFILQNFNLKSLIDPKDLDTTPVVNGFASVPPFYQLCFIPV

Cc1nn(C(=O)CCC(=O)NCCc2ccccc2)c2ccccc12
IC50 [1]: > 29.9 µM (inactive) | EC50 [2]: > 29.9 µM (inactive)

COc1ccc(-n2nc3cc(C)c(NC(C)=O)cc3n2)cc1
IC50 [3]: > 67.6 µM (inactive) | IC50 [4]: > 0.278 µM (active)

COc1cc(/C=C/c2nc(O)c3ccccc3n2)cc(Br)c1O
IC50 [5]: 0.914 µM (active) | IC50 [6]: > 100 µM (inactive) | IC50 [7]: 88 µM (active)

CCc1ccc(-c2cc(C(=O)NCc3ccco3)c3ccccc3n2)s1
EC50 [8]: 11.2 µM (active) | EC50 [9]: 5.65 µM (active) | EC50 [10]: 23.9 µM (active) | AC50 [11]: 4.47 µM (inconclusive) | IC50 [5]: 40.7 µM (active) | IC50 [6]: > 100 µM (inactive) | IC50 [7]: 55.8 µM (active) | AC50 [12]: 15.8 µM (inconclusive) | AC50 [13]: 2 µM (inconclusive)

CCOCCCN(Cc1ccco1)C(=O)c1cc2c(=O)[nH]c3ccc(C)cc3c2s1
EC50 [14]: > 89.2 µM (inactive)

NC(CSC1(c2cccc3ccccc23)c2ccccc2-c2ccccc21)C(=O)O (centres undefined)
IC50 [15]: 9.51 µM (active) | IC50 [16]: 27.7 µM (active)

CCCCNc1ccc2c(c1)C1CC2CCN1C(=O)OCc1ccccc1 (centres undefined)
AC50 [17]: 76.2 µM (active) | IC50 [3]: > 67.5 µM (inactive) | IC50 [4]: > 67.5 µM (inactive)

Cc1ccc([S+]([O-])Cc2ccc(C(=O)N3CCN(C4CCCCC4)CC3)o2)cc1 (centres undefined)
IC50 [3]: > 67.6 µM (inactive) | IC50 [4]: > 67.6 µM (inactive)

COc1ccc(N/N=C/c2c[nH]c3ccccc23)cc1
IC50 [18]: 29.5 µM (active) | IC50 [19]: 19.9 µM (active) | IC50 [20]: 25.8 µM (active) | IC50 [21]: 11.4 µM (active)

COc1ccccc1-c1cc(NC(C)=O)c2ncc(-c3cccc(C(C)=O)c3)n2c1
IC50 [22]: > 79 µM (inactive) | EC50 [14]: > 89.2 µM (inactive)

COc1cccc(-c2noc(/C=C/c3ccccc3Cl)n2)c1
IC50 [18]: 18 µM (active) | IC50 [19]: 20 µM (active) | IC50 [20]: 14 µM (active) | IC50 [21]: 5.2 µM (active)

C[C@H](CO)N1C[C@H](C)[C@@H](CN(C)Cc2ccncc2)Oc2ccc(NC(=O)CCC(F)(F)F)cc2C1=O
AC50 [23]: 23.4 µM (active)

O=C(N/N=C\C=C\c1ccco1)c1cc(-c2ccc3ccccc3c2)[nH]n1
IC50 [24]: 3.98 µM (active) | IC50 [25]: 2.96 µM (active) | IC50 [15]: 6.68 µM (active) | IC50 [16]: 20.3 µM (active)
